Molecules are shown by their SMILES. Structures can show the parent of a compound that is named as a salt.

Chain of α7-nAChR (Q05941 23-502 limits assumed): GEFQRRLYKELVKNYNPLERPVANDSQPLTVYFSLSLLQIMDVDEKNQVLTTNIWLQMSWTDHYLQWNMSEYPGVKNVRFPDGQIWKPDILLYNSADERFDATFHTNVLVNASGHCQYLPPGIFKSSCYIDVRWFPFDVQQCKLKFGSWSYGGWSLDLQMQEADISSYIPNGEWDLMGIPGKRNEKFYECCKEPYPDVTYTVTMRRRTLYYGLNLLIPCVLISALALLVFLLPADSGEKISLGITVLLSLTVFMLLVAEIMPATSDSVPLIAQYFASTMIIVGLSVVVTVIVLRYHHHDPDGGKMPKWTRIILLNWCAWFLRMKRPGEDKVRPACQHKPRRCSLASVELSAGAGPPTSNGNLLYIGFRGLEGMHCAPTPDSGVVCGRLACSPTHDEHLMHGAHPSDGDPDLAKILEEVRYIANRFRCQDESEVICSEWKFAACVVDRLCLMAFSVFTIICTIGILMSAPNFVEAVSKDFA

For this assay, the target named is α7-nAChR (Rattus norvegicus (Rat), UniProt Q05941). In words: Affinity for α7-nAChR by inhibition of [3H]-methyllycaconitine binding to rat brain membranes. The conditions noted are these: rat brain membranes (P2 fraction), Ki=IC50/(1+L/KD). As for the experimental part:
1. Determination of the Affinity of Test Substances for α7-nAChR by Inhibition of [^3H]-methyllycaconitine Binding to Rat Brain Membranes
The [^3H]-methyllycaconitine binding assay is a modification of the method described by Davies et al. in Neuropharmacol.
Rat brain tissue (hippocampus or whole brain) is homogenized in homogenization buffer (10% w/v, 0.32 M sucrose, 1 mM EDTA, 0.1 mM phenylmethylsulfonyl fluoride (PMSF), 0.01% (w/v) NaN3, pH 7.4, 4° C.) at 600 rpm in a glass homogenizer. The homogenate is centrifuged (1000×g, 4° C., 10 min) and the supernatant is removed. The pellet is resuspended (20% w/v) and the suspension is centrifuged (1000×g, 4° C., 10 min). The two supernatants are combined and centrifuged (15 000×g, 4° C., 30 min). The pellet obtained in this way is referred to as the P2 fraction.
The P2 pellet is washed with binding buffer (50 mM Tris-HCl, 1 mM MgCl2, 120 mM NaCl, 5 mM KCl, 2 mM CaCl2, pH 7.4), and centrifuged (15 000×g, 4° C., 30 min), twice.
The P2 membranes are resuspended in binding buffer and incubated in a volume of 250 μl (amount of membrane protein 0.1-0.5 mg) in the presence of 1-5 nM [^3H]-methyllycaconitine, 0.1% (w/v) BSA (bovine serum albumin) and various concentrations of the test substance at 21° C. for 2.5 h. Incubation is then carried out in the presence of 1 μM α-bungarotoxin or 100 μM nicotine or 10 μM MLA (methyllycaconitine) to determine the non-specific binding.
The incubation is stopped by adding 4 ml PBS (20 mM Na2HPO4, 5 mM KH2PO4, 150 mM NaCl, pH 7.4, 4° C.) and filtering through type A/E glass fibre filters (Gelman Sciences) which have previously been placed in 0.3% (v/v) polyethyleneimine (PEI) for 3 h. The filters are washed twice with 4 ml of PBS (4° C.), and the bound radioactivity is determined by scintillation measurement. All the assays are carried out in triplicate.
Compound `COc1cccc2cc(C(=O)N[C@H]3CN4CCC3CC4)oc12` [Example 19, N-[(3R)-1-Azabicyclo[2.2.2]oct-3-yl]-7-methoxy-1-benzofuran-2-carboxamide hydrochloride] gave a Ki of 42 nM. The figure for `Nc1ccc2cc(C(=O)N[C@H]3CN4CCC3CC4)oc2c1` [Example 35, N-[(3R)-1-Azabicyclo[2.2.2]oct-3-yl]-6-amino-1-benzofuran-2-carboxamide] is 3.7 nM; for `O=C(N[C@H]1CN2CCC1CC2)c1cc2cccc([N+](=O)[O-])c2o1` [Example 36, N-[(3R)-1-Azabicyclo[2.2.2]oct-3-yl]-7-nitro-1-benzofuran-2-carboxamide] it is 63 nM; for `Nc1cccc2cc(C(=O)N[C@H]3CN4CCC3CC4)oc12` [Example 37, N-[(3R)-1-Azabicyclo[2.2.2]oct-3-yl]-7-amino-1-benzofuran-2-carboxamide] it is 80 nM.

As to `O=C(N[C@H]1CN2CCC1CC2)c1cc2cc(F)ccc2o1` [Example 42, N-[(3R)-1-Azabicyclo[2.2.2]oct-3-yl]-5-fluoro-1-benzofuran-2-carboxamide hydrochloride], affinity was put at a Ki of 37 nM.

Consider `O=C(N[C@H]1CN2CCC1CC2)c1cc2cccc(Br)c2o1` [Example 46, N-[(3R)-1-Azabicyclo[2.2.2]oct-3-yl]-7-bromo-1-benzofuran-2-carboxamide], for which the inhibition constant Ki was 58 nM. The figure for `O=C(N[C@H]1CN2CCC1CC2)c1cc2ccc3ccccc3c2o1` [Example 48, N-[(3R)-1-Azabicyclo[2.2.2]oct-3-yl]naphtho[1,2-b]furan-2-carboxamide hydrochloride] is 75 nM. Turning to `O=C(N[C@@H]1CN2CCC1CC2)c1cc2cccc(F)c2s1` [Example 59, N-[(3S)-1-Azabicyclo[2.2.2]oct-3-yl]-7-fluoro-1-benzothiophene-2-carboxamide hydrochloride], affinity was put at a Ki of 20 nM. With `Nc1ccc2sc(C(=O)N[C@H]3CN4CCC3CC4)cc2c1` [Example 62, N-[(3R)-1-Azabicyclo[2.2.2]oct-3-yl]-5-amino-1-benzothiophene-2-carboxamide dihydrochloride], the Ki worked out at 50 nM. The figure for `O=C(N[C@H]1CN2CCC1CC2)c1cc2cccc(C(F)(F)F)c2s1` [Example 64, N-[(3R)-1-Azabicyclo[2.2.2]oct-3-yl]-7-trifluoromethyl-1-benzothiophene-2-carboxamide hydrochloride] is 20 nM; for `O=C(N[C@@H]1CN2CCC1CC2)c1cc2cccc(C(F)(F)F)c2s1` [Example 65, N-[(3S)-1-Azabicyclo[2.2.2]oct-3-yl]-7-trifluoromethyl-1-benzothiophene-2-carboxamide hydrochloride] it is 55 nM.

`Nc1cccc2cc(C(=O)N[C@H]3CN4CCC3CC4)sc12` [Example 68, N-[(3R)-1-Azabicyclo[2.2.2]oct-3-yl]-7-amino-1-benzothiophene-2-carboxamide dihydrochloride]: the Ki was determined as 2 nM.

In the case of `Nc1ccc2cc(C(=O)N[C@H]3CN4CCC3CC4)sc2c1` [Example 73, 6-Amino-N-[(3R)-1-azabicyclo[2.2.2]oct-3-yl]-1-benzothiophene-2-carboxamide dihydrochloride], the Ki was determined as 2.8 nM. The figure for `O=C(N[C@H]1CN2CCC1CC2)c1cc2cc(F)ccc2s1` [Example 74, N-[(3R)-1-Azabicyclo[2.2.2]oct-3-yl]-5-fluoro-1-benzothiophene-2-carboxamide hydrochloride] is 22 nM; for `COc1cccc2cc(C(=O)N[C@H]3CN4CCC3CC4)sc12` [Example 76, N-[(3R)-1-Azabicyclo[2.2.2]oct-3-yl]-7-methoxy-1-benzothiophene-2-carboxamide hydrochloride] it is 6.7 nM; for `COc1cccc2cc(C(=O)N[C@@H]3CN4CCC3CC4)sc12` [Example 77, N-[(3S)-1-Azabicyclo[2.2.2]oct-3-yl]-7-methoxy-1-benzothiophene-2-carboxamide hydrochloride] it is 20 nM.

In the case of `O=C(N[C@H]1CN2CCC1CC2)c1cc2c(F)cccc2s1` [Example 78, N-[(3R)-1-Azabicyclo[2.2.2]oct-3-yl]-4-fluoro-1-benzothiophene-2-carboxamide hydrochloride], affinity was put at a Ki of 80 nM.

With `O=C(N[C@H]1CN2CCC1CC2)c1cc2cc(F)cc(F)c2s1` [Example 80, N-[(3R)-1-Azabicyclo[2.2.2]oct-3-yl]-5,7-difluoro-1-benzothiophene-2-carboxamide hydrochloride], the Ki was found to be 31 nM.

The compound `CC(=O)Nc1ccc2cc(C(=O)N[C@H]3CN4CCC3CC4)sc2c1` [Example 88, 6-(Acetylamino)-N-[(3R)-1-azabicyclo[2.2.2]oct-3-yl]-1-benzothiophene-2-carboxamide hydrochloride] displayed a Ki of 28 nM.

In general, Ki refers to a dissociation constant, usually derived from enzyme kinetics or from competition with a known ligand.

Values taken from patent US8884017B2, “2-heteroarylcarboxylic acid amides” (Bayer Intellectual Property GmbH, priority 2001, dated 2014).
